In patent publication US20090311237A1, “Combination therapy using a soluble hyaluronidase and a bisphosphonate” (priority 2008, published 2009):
Like-named read-outs stand apart in the source and are kept apart here.

Assay: Pharmacokinetics of ZA in pig serum after IV or SC infusion with or without rHuPH20 (LC-MS-MS, non-compartmental analysis)
Assay type: in vivo
Details: ZA […], rHuPH20 0 U/mL
Procedure: A pharmacokinetic study of zoledronic acid (ZA) co-administered with rHuPH20 in female Yorkshire swines was conducted. The primary objective of the study was to determine the bioavailability of zoledronic acid dosed via subcutaneous (SC) co-administration with human recombinant hyaluronidase PH20 (rHuPH20) and to compare the overall exposure to an equivalent IV dose.
Animals in Study Group 1 were dosed with 0.15 mg/kg ZA given via a 20-minute IV infusion. Animals in Study Groups 2 and 3 were dosed subcutaneously (SC) with 0.15 mg/kg ZA without and with rHuPH20, respectively, in different SC delivery volumes.
Following ZA dose administration, serial blood samples were collected via vascular access ports (VAPs) for serum preparation and determination of ZA concentrations. Blood collection times were at 1, 3, 5, 10, 15, 20, 30, 45, and 60 minutes, and at 1.5, 2, 3, 4, 6, 8, 10, 24, 48, and 72 hours post dose. Urine samples were also collected to compare excretion characteristics between IV and SC routes of administration. Collection times for urine were at 15 minutes before dosing (−15 min.), continuously from dose initiation to 2 hours post dose, and at 4, 6, 8, and 24 hours post dose thereafter.
Serum concentration of ZA was determined using a qualified LC-MS-MS assay after derivatization with diazomethane (Zhu, L S et al. (2006) Rapid Commun. Mass Spectrom. 20: 3421-3426; “Qualification Data of An LC-MS/MS Method for the Determination of Zoledronate in Porcine Serum”, MDS Pharma Services Study No. AA43671-01, Report Date 14 Sep. 2007). The assay range was from 2.0 to 400 ng/mL with a lower limit of quantitation (LLOQ) at 2.0 ng/mL. Urine concentration of ZA was determined by a similar well qualified LC-MS-MS method (“Qualification Data of An LC-MS/MS Method for the Determination of Zoledronate in Porcine Urine”, MDS Pharma Services Study No. AA43671-02, Report Date 14 Sep. 2007) with an assay LLOQ at 10 ng/mL.
Pharmacokinetic (PK) analyses of ZA serum concentration versus time data were conducted using WinNonlin v5.1 (Pharsight, Mountain View, Calif.). Non-compartmental analysis was used for derivation of primary and secondary pharmacokinetic (PK) parameters. AUC, Cmax, and Tmax were compared between dose routes, between co-administration with rHuPH20, and with dose of rHuPH20.

[1] = female, Yorkshire, pig, serum, intravenous, […], animal ID 57, Study Group 1, IV 20 min infusion, read-out: Zoledronic Acid Serum Concentration
[2] = female, Yorkshire, pig, serum, intravenous, […], animal ID 61, Study Group 1, IV 20 min infusion, read-out: Zoledronic Acid Serum Concentration

## O=P(O)(O)C(O)(Cn1ccnc1)P(=O)(O)O [ZA, 1-hydroxy-2-(1H-imidazol-1-yl)ethylidene-1,1-bisphosphonic acid]
Time 6 h, pig ID 59, Study Group 2, SC, 100 mL, 16 min
  Zoledronic Acid Serum Concentration: BLQ (BLQ = below assay limit of quantification (2.0 ng/mL))
Time 8 h, pig ID 59, Study Group 2, SC, 100 mL, 16 min
  Zoledronic Acid Serum Concentration: BLQ (BLQ = below assay limit of quantification (2.0 ng/mL))
Time 8 h, pig ID 60, Study Group 2, SC, 100 mL, 16 min
  Zoledronic Acid Serum Concentration: BLQ (BLQ = below assay limit of quantification (2.0 ng/mL))
Time 8 h, pig ID 62, Study Group 2, SC, 50 mL, 8 min
  Zoledronic Acid Serum Concentration: BLQ (BLQ = below assay limit of quantification (2.0 ng/mL))
Time 8 h, pig ID 69, Study Group 2, SC, 25 mL, 4 min
  Zoledronic Acid Serum Concentration: BLQ (BLQ = below assay limit of quantification (2.0 ng/mL))
Time 10 h, pig ID 59, Study Group 2, SC, 100 mL, 16 min
  Zoledronic Acid Serum Concentration: BLQ (BLQ = below assay limit of quantification (2.0 ng/mL))
Time 10 h, pig ID 60, Study Group 2, SC, 100 mL, 16 min
  Zoledronic Acid Serum Concentration: BLQ (BLQ = below assay limit of quantification (2.0 ng/mL))
Time 10 h, pig ID 62, Study Group 2, SC, 50 mL, 8 min
  Zoledronic Acid Serum Concentration: BLQ (BLQ = below assay limit of quantification (2.0 ng/mL))
Time 10 h, pig ID 69, Study Group 2, SC, 25 mL, 4 min
  Zoledronic Acid Serum Concentration: BLQ (BLQ = below assay limit of quantification (2.0 ng/mL))
Time 10 h, pig ID 70, Study Group 2, SC, 10 mL, 1.6 min
  Zoledronic Acid Serum Concentration: BLQ (BLQ = below assay limit of quantification (2.0 ng/mL))
Time 24 h, pig ID 59, Study Group 2, SC, 100 mL, 16 min
  Zoledronic Acid Serum Concentration: BLQ (BLQ = below assay limit of quantification (2.0 ng/mL))
Time 24 h, pig ID 60, Study Group 2, SC, 100 mL, 16 min
  Zoledronic Acid Serum Concentration: BLQ (BLQ = below assay limit of quantification (2.0 ng/mL))
Time 24 h, pig ID 62, Study Group 2, SC, 50 mL, 8 min
  Zoledronic Acid Serum Concentration: BLQ (BLQ = below assay limit of quantification (2.0 ng/mL))
Time 24 h, pig ID 69, Study Group 2, SC, 25 mL, 4 min
  Zoledronic Acid Serum Concentration: BLQ (BLQ = below assay limit of quantification (2.0 ng/mL))
Time 24 h, pig ID 70, Study Group 2, SC, 10 mL, 1.6 min
  Zoledronic Acid Serum Concentration: BLQ (BLQ = below assay limit of quantification (2.0 ng/mL))
Time 48 h, pig ID 59, Study Group 2, SC, 100 mL, 16 min
  Zoledronic Acid Serum Concentration: BLQ (BLQ = below assay limit of quantification (2.0 ng/mL))
Time 48 h, pig ID 60, Study Group 2, SC, 100 mL, 16 min
  Zoledronic Acid Serum Concentration: BLQ (BLQ = below assay limit of quantification (2.0 ng/mL))
Time 48 h, pig ID 62, Study Group 2, SC, 50 mL, 8 min
  Zoledronic Acid Serum Concentration: BLQ (BLQ = below assay limit of quantification (2.0 ng/mL))
Time 48 h, pig ID 69, Study Group 2, SC, 25 mL, 4 min
  Zoledronic Acid Serum Concentration: BLQ (BLQ = below assay limit of quantification (2.0 ng/mL))
Time 48 h, pig ID 70, Study Group 2, SC, 10 mL, 1.6 min
  Zoledronic Acid Serum Concentration: BLQ (BLQ = below assay limit of quantification (2.0 ng/mL))
Time 72 h, pig ID 59, Study Group 2, SC, 100 mL, 16 min
  Zoledronic Acid Serum Concentration: BLQ (BLQ = below assay limit of quantification (2.0 ng/mL))
Time 72 h, pig ID 60, Study Group 2, SC, 100 mL, 16 min
  Zoledronic Acid Serum Concentration: BLQ (BLQ = below assay limit of quantification (2.0 ng/mL))
Time 72 h, pig ID 62, Study Group 2, SC, 50 mL, 8 min
  Zoledronic Acid Serum Concentration: BLQ (BLQ = below assay limit of quantification (2.0 ng/mL))
Time 72 h, pig ID 69, Study Group 2, SC, 25 mL, 4 min
  Zoledronic Acid Serum Concentration: BLQ (BLQ = below assay limit of quantification (2.0 ng/mL))
Time 72 h, pig ID 70, Study Group 2, SC, 10 mL, 1.6 min
  Zoledronic Acid Serum Concentration: BLQ (BLQ = below assay limit of quantification (2.0 ng/mL))
Time […], pig ID 60, Study Group 2, SC, 100 mL, 16 min
  Zoledronic Acid Serum Concentration: BLQ (BLQ = below assay limit of quantification (2.0 ng/mL))
Time […], pig ID 62, Study Group 2, SC, 50 mL, 8 min
  Zoledronic Acid Serum Concentration: BLQ (BLQ = below assay limit of quantification (2.0 ng/mL))
Time […], pig ID 69, Study Group 2, SC, 25 mL, 4 min
  Zoledronic Acid Serum Concentration: BLQ (BLQ = below assay limit of quantification (2.0 ng/mL))
Time […], pig ID 70, Study Group 2, SC, 10 mL, 1.6 min
  Zoledronic Acid Serum Concentration: BLQ (BLQ = below assay limit of quantification (2.0 ng/mL))
Animal ID 57, Study Group 1, IV 20 min infusion, time 6 h
  Zoledronic Acid Serum Concentration: BLQ^a (BLQ = below assay limit of quantification (2.0 ng/mL))
Animal ID 57, Study Group 1, IV 20 min infusion, time 8 h
  Zoledronic Acid Serum Concentration: BLQ (BLQ = below assay limit of quantification (2.0 ng/mL))
Animal ID 57, Study Group 1, IV 20 min infusion, time 10 h
  Zoledronic Acid Serum Concentration: BLQ (BLQ = below assay limit of quantification (2.0 ng/mL))
Animal ID 57, Study Group 1, IV 20 min infusion, time 24 h
  Zoledronic Acid Serum Concentration: BLQ (BLQ = below assay limit of quantification (2.0 ng/mL))
Animal ID 57, Study Group 1, IV 20 min infusion, time 48 h
  Zoledronic Acid Serum Concentration: BLQ (BLQ = below assay limit of quantification (2.0 ng/mL))
Animal ID 57, Study Group 1, IV 20 min infusion, time 72 h
  Zoledronic Acid Serum Concentration: BLQ (BLQ = below assay limit of quantification (2.0 ng/mL))
Animal ID 57, Study Group 1, IV 20 min infusion, time […]
  Zoledronic Acid Serum Concentration: BLQ (BLQ = below assay limit of quantification (2.0 ng/mL))
Animal ID 61, Study Group 1, IV 20 min infusion, time 6 h
  Zoledronic Acid Serum Concentration: BLQ (BLQ = below assay limit of quantification (2.0 ng/mL))
Animal ID 61, Study Group 1, IV 20 min infusion, time 8 h
  Zoledronic Acid Serum Concentration: BLQ (BLQ = below assay limit of quantification (2.0 ng/mL))
Animal ID 61, Study Group 1, IV 20 min infusion, time 10 h
  Zoledronic Acid Serum Concentration: BLQ (BLQ = below assay limit of quantification (2.0 ng/mL))
Animal ID 61, Study Group 1, IV 20 min infusion, time 24 h
  Zoledronic Acid Serum Concentration: BLQ (BLQ = below assay limit of quantification (2.0 ng/mL))
Animal ID 61, Study Group 1, IV 20 min infusion, time 48 h
  Zoledronic Acid Serum Concentration: BLQ (BLQ = below assay limit of quantification (2.0 ng/mL))
Animal ID 61, Study Group 1, IV 20 min infusion, time 72 h
  Zoledronic Acid Serum Concentration: BLQ (BLQ = below assay limit of quantification (2.0 ng/mL))
Animal ID 61, Study Group 1, IV 20 min infusion, time […]
  Zoledronic Acid Serum Concentration: BLQ (BLQ = below assay limit of quantification (2.0 ng/mL))
Animal ID 67, Study Group 1, IV 20 min infusion, time 6 h
  Zoledronic Acid Serum Concentration: BLQ (BLQ = below assay limit of quantification (2.0 ng/mL))
Animal ID 67, Study Group 1, IV 20 min infusion, time 8 h
  Zoledronic Acid Serum Concentration: BLQ (BLQ = below assay limit of quantification (2.0 ng/mL))
Animal ID 67, Study Group 1, IV 20 min infusion, time 10 h
  Zoledronic Acid Serum Concentration: BLQ (BLQ = below assay limit of quantification (2.0 ng/mL))
Animal ID 67, Study Group 1, IV 20 min infusion, time 24 h
  Zoledronic Acid Serum Concentration: BLQ (BLQ = below assay limit of quantification (2.0 ng/mL))
Animal ID 67, Study Group 1, IV 20 min infusion, time 48 h
  Zoledronic Acid Serum Concentration: BLQ (BLQ = below assay limit of quantification (2.0 ng/mL))
Animal ID 67, Study Group 1, IV 20 min infusion, time 72 h
  Zoledronic Acid Serum Concentration: BLQ (BLQ = below assay limit of quantification (2.0 ng/mL))
Animal ID 67, Study Group 1, IV 20 min infusion, time […]
  Zoledronic Acid Serum Concentration: BLQ (BLQ = below assay limit of quantification (2.0 ng/mL))
[1]
  concentration at 0.016 h: 255 ng/mL
  concentration at 0.05 h: 446 ng/mL
  concentration at 0.333 h: 388 ng/mL
female, Yorkshire, pig, serum, intravenous, […], animal ID 57, Study Group 1, IV 20 min infusion, time 0.50 h, read-out: Zoledronic Acid Serum Concentration
  concentration at 0.5 h: 244 ng/mL
female, Yorkshire, pig, serum, intravenous, […], animal ID 57, Study Group 1, IV 20 min infusion, time 1.00 h, read-out: Zoledronic Acid Serum Concentration
  concentration at 1 h: 71.4 ng/mL
female, Yorkshire, pig, serum, intravenous, […], animal ID 57, Study Group 1, IV 20 min infusion, time 2 h, read-out: Zoledronic Acid Serum Concentration
  concentration at 2 h: 15.4 ng/mL
female, Yorkshire, pig, serum, intravenous, […], animal ID 57, Study Group 1, IV 20 min infusion, time 3 h, read-out: Zoledronic Acid Serum Concentration
  concentration at 3 h: 5.8 ng/mL
female, Yorkshire, pig, serum, intravenous, […], animal ID 57, Study Group 1, IV 20 min infusion, time 4 h, read-out: Zoledronic Acid Serum Concentration
  concentration at 4 h: 2.8 ng/mL
[2]
  concentration at 0.016 h: 254 ng/mL
  concentration at 0.05 h: 196 ng/mL
  concentration at 0.333 h: 596 ng/mL
female, Yorkshire, pig, serum, intravenous, […], animal ID 61, Study Group 1, IV 20 min infusion, time 0.5 h, read-out: Zoledronic Acid Serum Concentration
  concentration at 0.5 h: 299 ng/mL
female, Yorkshire, pig, serum, intravenous, […], animal ID 61, Study Group 1, IV 20 min infusion, time 1 h, read-out: Zoledronic Acid Serum Concentration
  concentration at 1 h: 85.5 ng/mL
